Assay results as given in patent US12428455B2, “Dominant negative CEBPB and CEBPD proteins and methods of use for decreasing viability of neoplastic cells” (The Trustees of Columbia University in the City of New York, priority 2018, dated 2025).

Assays:
[1] = system: MDA-MB 231, HCT116, and A375 cells; assay: Peptide treatment after doxorubicin pre-treatment, cell number; type: cell-based; conditions: 100 nM, 24 hours
Method: Replicate cultures of MDA-MB 231, HCT116, and A375 cells were pretreated with 100 nM doxorubicin for 24 hours, and then treated with 1 μM, 3 μM, 10 μM, or 20 μM CP-dn-CEBPB and CP-dn-CEBPD peptides, maintained for 6 days, and then assessed for cell number. The bar graphs of FIGS. 31A (MDA-MB 231, CP-dn-CEBPB), 31C (MDA-MB 231, CP-dn-CEBPBD, 31E (HCT116, CP-dn-CEBPBD), 31G (HCT116, CP-dn-CEBPD), 31I (A375, CP-dn-CEBPBB), and 31K (A375, CP-dn-CEBPBD) show relative cell numbers for each condition as compared to untreated controls. The line graphs of FIGS. 31B (MDA-MB 231, CP-dn-CEBPB), 31D (MDA-MB 231, CP-dn-CEBPBD), 31F (HCT116, CP-dn-CEBPB), 31H (HCT116, CP-dn-CEBPD), 31J (A375, CP-dn-CEBPB), and 31L (A375, CP-dn-CEBPBD) show the response as normalized in each case so that 100 represents the relative number of surviving cells that received the indicated level of doxorubicin, but no peptide treatment.

[2] = system: paclitaxel-resistant T98G cells; assay: Cell number, paclitaxel-resistant T98G cells; type: cell-based; conditions: 6 days; 0 μM to 50 μM peptide or 0 nM to 50 nM paclitaxel
Method: Replicate cultures of T98G wild type cells and paclitaxel-resistant T98G cells were treated with 0 nM to 50 nM paclitaxel or 0 μM to 50 μM CP-dn-CEBPB or CP-dn-CEBPD peptides, maintained for 6 days, and then assessed for cell number. Paclitaxel resistant T98G cells were inhibited by both CP-dn-CEBPB (FIG. 28A) and CP-dn-CEBPD (FIG. 28B), but, as expected were not inhibited by paclitaxel (FIG. 28C). This establishes that CP-dn-CEBPB and CP-dn-CEBPD may be effective against chemotherapy-resistant cells.

Structure (SMILES) | effect of doxorubicin pre-treatment on growth of the cancer cells [1] | inhibition of paclitaxel-resistant T98G cells (cell number) [2]
COc1cccc2c1C(=O)c1c(O)c3c(c(O)c1C2=O)C[C@@](O)(C(=O)CO)C[C@@H]3O[C@H]1C[C@H](N)[C@H](O)[C@H](C)O1 [doxorubicin, reference compound] | inhibited grown of the cancer cells | 
CC(=O)O[C@H]1C(=O)[C@@]2(C)[C@H]([C@H](OC(=O)c3ccccc3)[C@]3(O)C[C@H](OC(=O)[C@H](O)[C@@H](NC(=O)c4ccccc4)c4ccccc4)C(C)=C1C3(C)C)[C@]1(OC(C)=O)CO[C@@H]1C[C@@H]2O [paclitaxel, reference compound] |  | not inhibited
